Laboratory results reported in PubChem BioAssay AID248 (DTP/NCI, 2004).
“And” between values parts separate entries of the source, which are not always exact repeats. Equal values may be shown once. Inconclusive results and toxic doses are left out. Cut-off read from the data, not from the text of the source: active = T/C of 150% or more; inactive = T/C below 125%.

Tested on: L1210 leukemia ip in BDF1 mice, survival T/C
Assay: NCI In Vivo Anticancer Drug Screen. Data for tumor model L1210 Leukemia (intraperitoneal) in B6D2F1 (BDF1) mice
Settings: endpoint: mean survival time, higher = longer survival
How it was run: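 Each compound was tested against a transplantable tumor grown in mice. The endpoint was survival, with treated animals benchmarked against vehicle controls as a simple ratio.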

[1] = dose: 50.0 mg/kg/injection, schedule: Q01DX009 (ip), vehicle: saline with Tween-80
[2] = dose: 100.0 mg/kg/injection, schedule: Q01DX001 (ip), vehicle: saline
[3] = dose: 100.0 mg/kg/injection, schedule: Q04DX003 (ip), vehicle: saline
[4] = dose: 200.0 mg/kg/injection, schedule: Q01DX001 (ip), vehicle: saline
[5] = dose: 200.0 mg/kg/injection, schedule: Q04DX003 (ip), vehicle: saline
[6] = dose: 100.0 mg/kg/injection, schedule: Q04DX003 (ip), vehicle: Klucel (hydroxypropylcellulose) (HPC)
[7] = dose: 200.0 mg/kg/injection, schedule: Q04DX003 (ip), vehicle: Klucel (hydroxypropylcellulose) (HPC)
[8] = dose: 50.0 mg/kg/injection, schedule: Q04DX003 (ip), vehicle: other
[9] = dose: 100.0 mg/kg/injection, schedule: Q01DX009 (ip), vehicle: saline with Tween-80
[10] = dose: 100.0 mg/kg/injection, schedule: Q04DX002 (ip), vehicle: Klucel (hydroxypropylcellulose) (HPC)
[11] = dose: 200.0 mg/kg/injection, schedule: Q04DX002 (ip), vehicle: Klucel (hydroxypropylcellulose) (HPC)
[12] = dose: 400.0 mg/kg/injection, schedule: Q04DX002 (ip), vehicle: Klucel (hydroxypropylcellulose) (HPC)

Measured: T/C

COc1cc2c(cc1OC)-c1cc3cc(OC)c(OC)cc3c(C)[n+]1CC2 (tested in a mixture with another compound)
inactive: dose: 12.5 mg/kg/injection, schedule: Q04DX002 (ip), vehicle: Klucel (hydroxypropylcellulose) (HPC) 110 % of control | dose: 25.0 mg/kg/injection, schedule: Q01DX009 (ip), vehicle: saline with Tween-80 104 % of control | dose: 25.0 mg/kg/injection, schedule: Q04DX002 (ip), vehicle: Klucel (hydroxypropylcellulose) (HPC) 106 % of control | [1] 107 % of control | dose: 50.0 mg/kg/injection, schedule: Q04DX002 (ip), vehicle: Klucel (hydroxypropylcellulose) (HPC) 95 % of control

CCOC(=O)/C(O)=C\c1cc(Br)c(OC)cc1[N+](=O)[O-]
inactive: [2] 102 % of control | [3] 98 % of control | [4] 107 % of control | [5] 98 % of control | dose: 400.0 mg/kg/injection, schedule: Q01DX001 (ip), vehicle: saline 95 % of control | dose: 400.0 mg/kg/injection, schedule: Q04DX003 (ip), vehicle: saline 95 % of control

Cc1ccc(C(O)CCN2CCOCC2)c(C)c1 (stereo not drawn)
inactive: [2] 102 % of control | [4] 104 % of control

CCOC(=O)CCc1c(C(=O)OCC)[nH]c(C)c1CC(=O)OC
inactive: [6] 98 % of control | [7] 101 % of control | dose: 400.0 mg/kg/injection, schedule: Q04DX003 (ip), vehicle: Klucel (hydroxypropylcellulose) (HPC) 101 % of control

N#C/C(=C\c1cccs1)c1ccccc1
inactive: dose: 50.0 mg/kg/injection, schedule: Q04DX003 (ip), vehicle: Klucel (hydroxypropylcellulose) (HPC) 110 % of control | [6] 98 % of control | [7] 104 % of control

O=C(O)c1cc(N=Nc2ccccc2)ccc1O
inactive: [1] 96 % of control | [8] 93 % of control | dose: 100.0 mg/kg/injection, schedule: Q01DX001 (ip), vehicle: other 101 % of control | [9] 94 % of control | dose: 100.0 mg/kg/injection, schedule: Q04DX003 (ip), vehicle: other 93 % of control | [3] 96 % of control | dose: 200.0 mg/kg/injection, schedule: Q01DX001 (ip), vehicle: other 107 % of control | dose: 200.0 mg/kg/injection, schedule: Q04DX003 (ip), vehicle: other 98 % of control | [5] 87 % of control

COc1cc2c(c(OC)c1OC)-c1ccc(OC)c(=O)cc1C(=O)CC2
inactive: dose: 50.0 mg/kg/injection, schedule: Q01DX001 (ip), vehicle: carboxymethylcellulose (CMC) 122 % of control

O=C(C=C(C(F)(F)F)C(F)(F)F)c1ccc(Br)cc1
inactive: dose: 25.0 mg/kg/injection, schedule: Q04DX003 (ip), vehicle: other 88 % of control | [8] 94 % of control

O=C(O)c1cc(Cl)c(O)c(Cl)c1
inactive: [9] 107 % of control | dose: 200.0 mg/kg/injection, schedule: Q01DX009 (ip), vehicle: saline with Tween-80 91 % of control | dose: 400.0 mg/kg/injection, schedule: Q01DX009 (ip), vehicle: saline with Tween-80 101 % of control

O=[N+]([O-])c1cc(C(F)(F)F)cc([N+](=O)[O-])c1NN=C1CCCCC1
inactive: dose: 100.0 mg/kg/injection, schedule: Q01DX009 (ip), vehicle: gum acacia 93 % of control | dose: 200.0 mg/kg/injection, schedule: Q01DX009 (ip), vehicle: gum acacia 91 % of control | dose: 400.0 mg/kg/injection, schedule: Q01DX009 (ip), vehicle: gum acacia 96 % of control

CCOC(=O)n1ccc2nc3ccccc3cc21
inactive: dose: 100.0 mg/kg/injection, schedule: Q01DX001 (ip), vehicle: Klucel (hydroxypropylcellulose) (HPC) 100 % of control | dose: 200.0 mg/kg/injection, schedule: Q01DX001 (ip), vehicle: Klucel (hydroxypropylcellulose) (HPC) 105 % of control | dose: 400.0 mg/kg/injection, schedule: Q01DX001 (ip), vehicle: Klucel (hydroxypropylcellulose) (HPC) 90 % of control

CCCCCCCCCC(C)NC(=O)CCl (stereo not drawn)
inactive: dose: 50.0 mg/kg/injection, schedule: Q01DX009 (ip), vehicle: Klucel (hydroxypropylcellulose) (HPC) 87 % of control | dose: 100.0 mg/kg/injection, schedule: Q01DX009 (ip), vehicle: Klucel (hydroxypropylcellulose) (HPC) 97 % of control | dose: 200.0 mg/kg/injection, schedule: Q01DX009 (ip), vehicle: Klucel (hydroxypropylcellulose) (HPC) 90 % of control

NNc1ccccc1-c1nc(N)nc(N)n1
inactive: dose: 9.38 mg/kg/injection, schedule: Q01DX001 (ip), vehicle: other 109 % of control | dose: 18.75 mg/kg/injection, schedule: Q01DX001 (ip), vehicle: other 112 % of control | dose: 37.5 mg/kg/injection, schedule: Q01DX001 (ip), vehicle: other 118 % of control

O=[N+]([O-])c1ccc(C(Br)Br)cc1
inactive: [6] 93 % of control | [7] 93 % of control

O=C1C(=O)c2ccccc2C=C1Br
inactive: [6] 94 % of control | [7] 95 % of control

CC(=O)OC1c2ccccc2C2c3ccccc3C1C2Cl (stereo not drawn)
inactive: dose: 176.0 mg/kg/injection, schedule: Q01DX001 (ip), vehicle: carboxymethylcellulose (CMC) 91 % of control | dose: 264.0 mg/kg/injection, schedule: Q01DX001 (ip), vehicle: carboxymethylcellulose (CMC) 95 % of control | dose: 400.0 mg/kg/injection, schedule: Q01DX001 (ip), vehicle: carboxymethylcellulose (CMC) 92 % of control | dose: 600.0 mg/kg/injection, schedule: Q01DX001 (ip), vehicle: carboxymethylcellulose (CMC) 89 % of control

CCCN(/C=C/C=C/C=[N+](CCC)CCC)CCC
inactive: dose: 0.03 mg/kg/injection, schedule: Q04DX003 (ip), vehicle: saline 100 % of control | dose: 0.05 mg/kg/injection, schedule: Q04DX003 (ip), vehicle: saline 109 % of control | dose: 0.1 mg/kg/injection, schedule: Q04DX003 (ip), vehicle: saline 98 % of control

COc1cc(/C=N/NC(=O)C[n+]2ccccc2)cc(OC)c1
inactive: dose: 25.0 mg/kg/injection, schedule: Q01DX009 (ip), vehicle: saline 119 % of control | dose: 50.0 mg/kg/injection, schedule: Q01DX009 (ip), vehicle: saline 103 % of control | dose: 100.0 mg/kg/injection, schedule: Q01DX009 (ip), vehicle: saline 116 % of control | [3] 96 % of control

CC(C)(C)C1CCC(NN)CC1 (stereo not drawn)
inactive: dose: 0.78 mg/kg/injection, schedule: Q01DX009 (ip), vehicle: saline 101 % of control | dose: 1.56 mg/kg/injection, schedule: Q01DX009 (ip), vehicle: saline 100 % of control | dose: 3.12 mg/kg/injection, schedule: Q01DX009 (ip), vehicle: saline 101 % of control | dose: 6.25 mg/kg/injection, schedule: Q01DX009 (ip), vehicle: saline 95 % of control | dose: 12.5 mg/kg/injection, schedule: Q04DX003 (ip), vehicle: saline 98 % of control | dose: 25.0 mg/kg/injection, schedule: Q04DX003 (ip), vehicle: saline 98 % of control | dose: 50.0 mg/kg/injection, schedule: Q01DX001 (ip), vehicle: saline 92 % of control

NC(N)=NC(N)=Nc1ccccc1CS
inactive: dose: 75.0 mg/kg/injection, schedule: Q01DX001 (ip), vehicle: saline 101 % of control | dose: 150.0 mg/kg/injection, schedule: Q01DX001 (ip), vehicle: saline 102 % of control

O=S(=O)(Nc1cccc(C(F)(F)F)c1)c1cc(Cl)c(Cl)cc1Cl
inactive: dose: 50.0 mg/kg/injection, schedule: Q01DX009 (ip), vehicle: carboxymethylcellulose (CMC) 86 % of control | dose: 75.0 mg/kg/injection, schedule: Q04DX003 (ip), vehicle: carboxymethylcellulose (CMC) 94 % of control | dose: 100.0 mg/kg/injection, schedule: Q04DX002 (ip), vehicle: carboxymethylcellulose (CMC) 100 % of control and 102 % of control | dose: 150.0 mg/kg/injection, schedule: Q04DX003 (ip), vehicle: carboxymethylcellulose (CMC) 94 % of control | dose: 200.0 mg/kg/injection, schedule: Q04DX002 (ip), vehicle: carboxymethylcellulose (CMC) 97 % of control | dose: 300.0 mg/kg/injection, schedule: Q04DX003 (ip), vehicle: carboxymethylcellulose (CMC) 100 % of control | dose: 400.0 mg/kg/injection, schedule: Q04DX002 (ip), vehicle: carboxymethylcellulose (CMC) 101 % of control and 91 % of control

N#C/C(N)=C(\C#N)N=C1CCCCC1=O
inactive: [10] 94 % of control | [11] 91 % of control | [12] 94 % of control

O=C(O)COc1ccc2ccccc2c1Cl
inactive: [10] 86 % of control | [11] 89 % of control | [12] 92 % of control
